Experimental data from ChEMBL document CHEMBL4402532, “Heme Oxygenase-2 (HO-2) as a therapeutic target: Activators and inhibitors” (Eur J Med Chem, 2019).

Assays:
Type in all cases: microsomes
[1] = molecular target: T1, Heme oxygenase 1 (Rattus norvegicus) (UniProt P06762); experiment: Activation of rat spleen microsome HO-1 preincubated for 10 mins followed by NADPH addition and measured after 15 mins by gas chromatography relative to control; parameters: concentration or dose not given beside the values
T1 sequence (whole entry): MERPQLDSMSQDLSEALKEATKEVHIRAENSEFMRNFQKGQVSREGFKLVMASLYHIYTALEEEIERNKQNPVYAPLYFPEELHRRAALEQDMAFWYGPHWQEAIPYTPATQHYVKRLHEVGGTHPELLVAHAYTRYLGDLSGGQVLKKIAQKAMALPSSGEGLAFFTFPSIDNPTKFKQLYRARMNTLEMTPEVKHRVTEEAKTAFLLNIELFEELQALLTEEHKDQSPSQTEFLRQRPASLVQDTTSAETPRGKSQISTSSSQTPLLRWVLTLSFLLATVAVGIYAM

[2] = molecular target: T2, Heme oxygenase 2 (Rattus norvegicus) (UniProt P23711); experiment: Activation of rat brain microsome HO-2 […] preincubated for 10 mins followed by NADPH addition and measured after 15 mins by gas chromatography relative to control; parameters: concentration or dose not given beside the values
T2 sequence (whole entry): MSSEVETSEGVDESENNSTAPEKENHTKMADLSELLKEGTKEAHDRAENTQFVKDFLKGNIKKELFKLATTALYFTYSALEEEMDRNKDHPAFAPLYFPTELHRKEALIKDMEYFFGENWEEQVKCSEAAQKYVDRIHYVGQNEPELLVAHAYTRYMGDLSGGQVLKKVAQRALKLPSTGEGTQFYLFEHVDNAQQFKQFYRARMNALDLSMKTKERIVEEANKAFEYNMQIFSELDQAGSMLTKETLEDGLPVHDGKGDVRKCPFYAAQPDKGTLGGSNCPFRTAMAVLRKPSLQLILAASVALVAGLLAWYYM

Heme oxygenase 1 [3] = molecular target: T3, Heme oxygenase 1 (Rattus norvegicus, UniProt P06762); experiment: Inhibition of Sprague-Dawley rat spleen microsome HO-1 preincubated for 10 mins followed by beta-NADPH addition and measured after 15 mins by gas chromatography
T3 sequence (P06762 whole entry): T1 sequence (whole entry)

Heme oxygenase 2 [4] = molecular target: T4, Heme oxygenase 2 (Rattus norvegicus, UniProt P23711); experiment: Inhibition of Sprague-Dawley rat brain microsome HO-2 preincubated for 10 mins followed by beta-NADPH addition and measured after 15 mins by gas chromatography
T4 sequence (P23711 whole entry): T2 sequence (whole entry)

Heme oxygenase 1 [5] = molecular target: T3, Heme oxygenase 1; experiment: Inhibition of rat spleen microsome HO-1 preincubated for 10 mins followed by beta-NADPH addition and measured after 15 mins by gas chromatography
Heme oxygenase 2 [6] = molecular target: T4, Heme oxygenase 2; experiment: Inhibition of rat brain microsome HO-2 preincubated for 10 mins followed by beta-NADPH addition and measured after 15 mins by gas chromatography

| SMILES | IC50 (Heme oxygenase 1 [3]) | IC50 (Heme oxygenase 2 [4]) | further results |
| --- | --- | --- | --- |
| Cc1oc2c(c1C(=O)N1CCCC1)C(=O)c1ccccc1C2=O | – | – | Activity [1]: 91%; Activity [2]: 602% |
| O=C(Cn1ccnc1)c1ccc(C2CCCCC2)cc1 | 5000 nM | 6 µM | – |
| O[C@H](Cn1ccnc1)c1ccc(CCc2ccccc2)cc1 | 225 nM | 8 µM | – |
| Cc1ccc(S(=O)(=O)C[C@@H]2CO[C@@](CCc3ccc(Cl)cc3)(Cn3ccnc3)O2)cc1 | 6000 nM | 3 µM | – |
| O=C(Cc1ccc(Br)cc1)Cn1ccnn1 | 390 nM | 3 µM | – |
| c1ccc(CCCCn2ccnc2)cc1 | 250 nM | 6.7 µM | – |
| Fc1ccc(CO[C@@H](CCc2ccc(Cl)cc2)Cn2ccnc2)cc1 | 900 nM | 1 µM | – |
| COc1ccc(CC(O)CCn2ccnc2)cc1 (stereo unspecified) | 700 nM | 6 µM | – |
| O=C(Cn1cncn1)c1ccc(Cc2ccccc2)cc1 | 2700 nM | 7 µM | – |
| O=C(Cn1ccnc1)c1cccc2ccccc12 | 2240 nM | 10 µM | – |
| CC(C)(C)N1COc2ccc3c4c(oc3c2C1)C(=O)c1ccccc1C4=O | – | – | Activity [1]: 85%; Activity [2]: 345% |
| O=C1C=CC(=O)c2ccccc21 | – | – | Activity [1]: 71%; Activity [2]: 503% |
| Cc1ccc(Cn2c(CC3CCCC3)nc3ccccc32)cc1 | 18100 nM | 8.6 µM | – |
| O=C1CCCc2ccccc21 | – | – | Activity [1]: 98%; Activity [2]: 96% |
| O=C(Cn1ccnc1)c1ccc(Cl)c(Cl)c1 | 1240 nM | – | – |
| OC(Cn1ccnc1)CC12CC3CC(CC(C3)C1)C2 (stereo unspecified) | 2000 nM | 6.5 µM | – |
| O=C1C(O)=C(Cl)C(=O)c2ccccc21 | – | – | Activity [1]: 106%; Activity [2]: 108% |
| COc1ccc(NC2=C(N3CCCCC3)C(=O)c3ccccc3C2=O)cc1 | – | – | Activity [1]: 82%; Activity [2]: 249% |
| c1ccc(CSCCn2ccnc2)cc1 | – | 10 µM | – |
| Brc1ccc(Cn2c(CC3CCCC3)nc3ccccc32)cc1 | 75600 nM | 8.4 µM | – |
| CC(C)N1CCN(c2ccc(OCC3COC(Cn4cncn4)(c4ccc(Cl)cc4Cl)O3)cc2)CC1 (stereo unspecified) [TERCONAZOLE] | – | – | IC50 (Heme oxygenase 1 [5]): 410 nM; IC50 (Heme oxygenase 2 [6]): 5 µM |
| c1ccc(CCCCCCn2ccnc2)cc1 | 2800 nM | 20 µM | – |
| c1ccc(Cn2c(CC3CC4CCC3C4)nc3ccccc32)cc1 (stereo unspecified) | > 100000 nM | 6.3 µM | – |
| O=C(Cn1ccnc1)c1ccc(Cl)c(Cl)c1Cl | 2100 nM | 6 µM | – |
